{"source": "patent US20200405728A1", "about": "“METHODS OF PREVENTING AND TREATING HYPOGLYCEMIA IN TYPE 1 AND TYPE 2 DIABETES PATIENTS” (Ferox Therapeutics LLC, priority 2018, published 2020)", "tested_on": "3D INSIGHT Islet Microtissues (primary human pancreatic islet cells)", "experiment": "Glucagon secretion assay (glucagon ELISA) in 3D INSIGHT Islet Microtissues", "format": "cell-based", "details": "for dose dependency of the increase in glucagon secretion: Example 2, donor AFCS437, 1, 10 and 100 μM; for fold induction at 10 µM / fold induction at 100 µM: Homo sapiens, Pancreatic islet; for fold induction at 10 µM: donor AFBM114, 10 μM; for fold induction at 100 µM: donor AFBM114, 100 μM", "excerpt": "This and the following example make use of 3D INSIGHT® Islet Microtissues (InSphero AG, Schlieren, Switzerland), an in vitro model system for diabetes research produced by optimized dissociation and controlled scaffold-free reaggregation of primary human pancreatic islet cells. This allows precise control over the newly forming islet microtissue size and eliminates contaminating exocrine material while ensuring homogeneous and native-like distribution of endocrine cells within each tissue. The resulting islet tissues display long-term (>28 days) and robust function, enabling high throughput and longitudinal study of pancreatic islet function, regulation, and preservation.\n1. The diabetes model system 3D INSIGHT® Islet Microtissues was obtained from a donor. 2. […] 3. Six replicates for each sample were tested. 4. L-arginine was used as a positive control. 5. DMSO was used a solvent for BF2649 hydrochloride and cyproheptadine hydrochloride; ddH2O was used as a solvent for L-arginine. […] 6. Glucagon secretion was quantified with a glucagon ELISA (Mercodia, Uppsala, Sweden). 7. Total ATP content was also measured during the assay.\nReferring to FIG. 5, a timeline (500) of the assay is shown. Day 0 (510) involved producing the 3D INSIGHT® Human Islet Microtissues. On Day 5 (520), the samples were moved to a receiving plate. On Day 7 (530), the islet size, viability, and function were verified by quality control. On the final day of the test (540), the glucagon secretion assay was performed with ELISA, and ATP content was measured.\n(§1) Before the assay, conditioned media was removed, islet microtissue washed twice with Kreb's Ringer HEPES buffer (KRHB) containing 5.5 mM glucose and were equilibrated in KRHB containing 5-5 mM glucose for 1.5 hours. Equilibration buffer was removed, islet microtissues were washed twice in KRHB with 5-5 mM glucose. Glucagon secretion was performed in KRHB with either 8 mM or 1 mM glucose for 2 hours in the presence of the test compounds. Conditioned KRHB were collected for analysis of glucagon content with an ELISA (Mercodia, Uppsala, Sweden).\nA second donor (UNOS ID #AFCS437) was used as well.\nas §1, with “5-5” for “5.5”", "key": {"[1]": {"details": "Example 1, donor AFBM114, 2 hours"}, "[2]": {"details": "Example 1, donor AFBM114, 2 hours, compared to vehicle at 1 mM glucose (FIG. 6)"}}, "note": "Counter-ions that a name gives are not always drawn.", "data": [{"compound": "CN1CCC(=C2c3ccccc3C=Cc3ccccc32)CC1", "note": "[cyproheptadine hydrochloride]", "values": [{"measurement": "increase in glucagon secretion, 1 mM glucose versus 8 mM glucose", "setting": "[1]", "value": "higher at 1 mM glucose than at 8 mM glucose"}, {"measurement": "glucagon secretion (effect)", "setting": "[2]", "value": "increased glucagon secretion"}]}, {"compound": "N=C(N)NCCC[C@H](N)C(=O)O", "note": "[L-arginine]", "values": [{"measurement": "increase in glucagon secretion, 1 mM glucose versus 8 mM glucose", "setting": "[1]", "value": "higher at 1 mM glucose than at 8 mM glucose"}, {"measurement": "glucagon secretion (effect)", "setting": "[2]", "value": "increased glucagon secretion"}]}, {"compound": "O=C(O)COCCN1CCN(C(c2ccccc2)c2ccc(Cl)cc2)CC1", "note": "(stereo not drawn) [Cetirizine, cetirizine dihydrochloride]", "values": [{"measurement": "dose dependency of the increase in glucagon secretion", "value": "much less pronounced"}, {"measurement": "glucagon secretion (effect)", "setting": "Example 2, donor AFCS437, all tested concentrations, compared to vehicle at 1 mM glucose (FIG. 10)", "value": "only slightly increased glucagon secretion"}]}, {"compound": "Clc1ccc(CCCOCCCN2CCCCC2)cc1", "note": "[BF2649 hydrochloride, 1-{3-[3-(4-chlorophenyl)propoxy]propyl}piperidine]", "values": [{"measurement": "dose dependence of the increase in glucagon secretion", "setting": "Example 1, donor AFBM114, 1, 10 and 100 μM, 1 mM glucose", "value": "dose dependent"}, {"measurement": "increase in glucagon secretion, 1 mM glucose versus 8 mM glucose", "setting": "[1]", "value": "higher at 1 mM glucose than at 8 mM glucose"}, {"measurement": "glucagon secretion (effect)", "setting": "[2]", "value": "increased glucagon secretion"}, {"measurement": "glucagon secretion (effect)", "setting": "Example 2, donor AFBM114, 10 μM, 8 mM glucose (FIG. 8)", "value": "increased glucagon secretion"}, {"measurement": "glucagon secretion (effect)", "setting": "Example 2, donor AFBM114, 100 μM, 8 mM glucose (FIG. 8)", "value": "increased glucagon secretion"}, {"measurement": "increase in glucagon secretion compared with 5 mM arginine", "setting": "Example 2, donor AFCS437, 100 μM", "value": "similarly to 5 mM arginine"}, {"measurement": "dose dependency of the increase in glucagon secretion", "value": "significant dose dependency"}, {"measurement": "fold induction at 10 µM", "setting": "1 mM glucose (Example 1)", "value": 1.8}, {"measurement": "fold induction at 10 µM", "setting": "8 mM glucose (Example 2)", "value": 1.8}, {"measurement": "fold induction at 100 µM", "setting": "1 mM glucose (Example 1)", "value": 7.5}, {"measurement": "fold induction at 100 µM", "setting": "8 mM glucose (Example 2)", "value": 2}, {"measurement": "increase in glucagon secretion compared with 5 mM arginine", "setting": "previously tested donor (AFBM114), 100 μM", "value": "similarly to 5 mM arginine"}]}]}
